Results: patent US20080009418A1, “Selective Inhibitors” (Alchemia LTD., priority 2004, published 2008)

Tests used:
Human neurokinin (NK1) = target: T1, Human neurokinin (NK1) (Homo sapiens, UniProt P25103); assay: Radioligand binding, human neurokinin NK1 membranes, filtration, [125I]-Substance P; conditions: compound at 10 μM; for A8 radioligand binding inhibition: human neurokinin NK1 membranes
T1 construct: purchased Perkin Elmer Biosignal
Outline: (§1)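 Percent inhibition of radioligand binding measured on recombinant human membranes: NK1 with [125I]-Substance P, KOP with [3H]-Diprenorphine. Incubation 1 h at room temperature, then harvest onto 0.3% PEI-soaked filters, cold Tris-HCl pH 7.4 washes and scintillation counting; non-specific binding from reference ligand wells.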

Human κ-Opioid (KOP) = target: T2, Human κ-Opioid (KOP) (Homo sapiens, UniProt P41145); assay: Radioligand binding, human κ-opioid (KOP) membranes, filtration, [3H]-Diprenorphine; conditions: compound at 10 μM; for A2 radioligand binding inhibition: human κ-opioid (KOP) membranes
T2 construct: purchased Perkin Elmer Biosignal
Outline: as §1

Human melanocortin (MC5) = target: T3, Human melanocortin (MC5) (Homo sapiens, UniProt P33032); assay: Radioligand binding, human melanocortin MC5 membranes, FlashPlate, [125I]-NDP-αMSH; conditions: compound at 10 μM; for A5 radioligand binding inhibition: human melanocortin MC5 membranes
T3 construct: purchased Perkin Elmer Biosignal
Outline: (§2)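 Cloned human receptor membranes were coated onto FlashPlate wells and incubated with radioligand and compound (added from a 0.5 mM DMSO daughter plate) for 1 hour at room temperature in the dark. Scintillation counting gave percent inhibition, with DMSO defining total and reference ligand defining non-specific binding.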

Human opioid (ORL1) = target: T4, Human opioid (ORL1) (Homo sapiens, UniProt P41146); assay: Radioligand binding, human opioid ORL1 membranes, FlashPlate, [125I]-Nociceptin; conditions: compound at 10 μM
T4 construct: purchased Perkin Elmer Biosignal
Outline: as §2

Human μ-opioid (MOP) = target: T5, Human μ-opioid (MOP) (Homo sapiens, UniProt P35372); assay: Radioligand binding, human μ-opioid (MOP) membranes, FlashPlate, [3H]-Naloxone; conditions: compound at 10 μM; for A7 radioligand binding inhibition: human μ-opioid (MOP) membranes
T5 construct: purchased Perkin Elmer Biosignal
Outline: as §2

[1] = target: T6, Human melanin-concentrating hormone (MCH1) (Homo sapiens, UniProt Q99705); assay: Radioligand binding, human melanin-concentrating hormone MCH1 membranes, FlashPlate, [125I]-S36057; conditions: compound at 10 μM; for A6 radioligand binding inhibition: human MCH1 membranes
T6 construct: purchased Perkin Elmer Biosignal
Outline: as §2

Human δ-opioid (DOP) = target: T7, Human δ-opioid (DOP) (Homo sapiens, UniProt P41143); assay: Radioligand binding, human δ-opioid (DOP) membranes, FlashPlate, [3H]-Bremazocine; conditions: compound at 10 μM; for A1 radioligand binding inhibition: human δ-opioid (DOP) membranes
T7 construct: purchased Perkin Elmer Biosignal
Outline: as §2

[2] = target: T8, Human neuropeptide Y (NPY-Y1) (Homo sapiens, UniProt P25929); assay: Radioligand binding, human neuropeptide Y NPY-Y1 membranes, FlashPlate, [125I]-PYY; conditions: compound at 10 μM
T8 construct: purchased Perkin Elmer Biosignal
T8 sequence (P25929 1-384): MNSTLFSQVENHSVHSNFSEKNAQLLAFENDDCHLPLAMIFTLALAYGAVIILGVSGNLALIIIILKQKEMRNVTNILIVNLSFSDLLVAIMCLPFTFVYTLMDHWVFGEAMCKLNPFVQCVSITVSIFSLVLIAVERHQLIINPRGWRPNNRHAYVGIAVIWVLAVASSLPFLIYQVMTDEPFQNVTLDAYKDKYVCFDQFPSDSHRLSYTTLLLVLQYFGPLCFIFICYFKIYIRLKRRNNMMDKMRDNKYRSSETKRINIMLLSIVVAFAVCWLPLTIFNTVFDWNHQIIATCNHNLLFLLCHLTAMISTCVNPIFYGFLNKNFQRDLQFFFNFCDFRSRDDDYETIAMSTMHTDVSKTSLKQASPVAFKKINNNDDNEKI
Outline: as §2

Human Melanocortin (MC3) = target: T9, Human Melanocortin (MC3) (Homo sapiens, UniProt P41968); assay: Radioligand binding, human melanocortin MC3 membranes, FlashPlate, [125I]-NDP-αMSH; conditions: compound at 10 μM; for A3 radioligand binding inhibition: human melanocortin MC3 membranes
T9 construct: purchased Perkin Elmer Biosignal
Outline: as §2

Human Melanocortin (MC4) = target: T10, Human Melanocortin (MC4) (Homo sapiens, UniProt P32245); assay: Radioligand binding, human melanocortin MC4 membranes, FlashPlate, [125I]-NDP-αMSH; conditions: compound at 10 μM; for A4 radioligand binding inhibition: human melanocortin MC4 membranes
T10 construct: purchased Perkin Elmer Biosignal
Outline: as §2

Mouse urotensin (mUR2) = target: T11, Mouse urotensin (mUR2) (Mus musculus, UniProt Q8VIH9); assay: Radioligand binding, mouse urotensin mUR2 membranes, FlashPlate, [125I]-Urotensin II; conditions: compound at 10 μM; for A11 radioligand binding inhibition: mouse urotensin mUR2 membranes
T11 construct: purchased Perkin Elmer Biosignal
T11 sequence (Q8VIH9 1-385): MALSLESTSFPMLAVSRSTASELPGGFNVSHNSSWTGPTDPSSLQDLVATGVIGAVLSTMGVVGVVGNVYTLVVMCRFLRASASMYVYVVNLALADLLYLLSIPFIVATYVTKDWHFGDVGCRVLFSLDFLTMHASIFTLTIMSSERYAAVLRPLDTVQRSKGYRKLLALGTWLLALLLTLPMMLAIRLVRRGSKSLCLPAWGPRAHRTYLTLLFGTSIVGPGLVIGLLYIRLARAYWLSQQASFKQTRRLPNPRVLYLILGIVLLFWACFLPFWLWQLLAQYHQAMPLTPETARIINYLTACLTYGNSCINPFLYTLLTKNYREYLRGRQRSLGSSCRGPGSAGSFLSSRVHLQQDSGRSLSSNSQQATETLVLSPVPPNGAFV
Outline: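 Cloned mouse urotensin (mUR2) receptor membranes from Perkin Elmer Biosignal were immobilized in FlashPlate microplates using a proprietary coating. Each well got 19.5 μl buffer, then 0.5 μl of DMSO, reference ligand, or compound. Adding 5 μl of [125I]-Urotensin II, diluted to 5× final concentration in binding buffer, started binding. Plates were sealed with TopSeal-A and incubated 1 hour at room temperature in the dark. Wells were counted for 30 seconds each on a TopCount after a 60-second delay, and percentage inhibition was calculated.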

T7 sequence (P41143 whole entry): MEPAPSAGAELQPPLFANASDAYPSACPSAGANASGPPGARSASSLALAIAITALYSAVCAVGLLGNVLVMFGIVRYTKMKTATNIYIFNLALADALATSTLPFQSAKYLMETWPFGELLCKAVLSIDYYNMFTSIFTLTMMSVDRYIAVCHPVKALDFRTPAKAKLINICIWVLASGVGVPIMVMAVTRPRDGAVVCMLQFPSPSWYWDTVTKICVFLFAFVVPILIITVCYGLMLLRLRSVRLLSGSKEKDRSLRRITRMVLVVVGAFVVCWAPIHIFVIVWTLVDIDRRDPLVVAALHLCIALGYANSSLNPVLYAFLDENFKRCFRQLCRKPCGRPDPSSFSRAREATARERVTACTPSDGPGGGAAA
T9 sequence (P41968 whole entry): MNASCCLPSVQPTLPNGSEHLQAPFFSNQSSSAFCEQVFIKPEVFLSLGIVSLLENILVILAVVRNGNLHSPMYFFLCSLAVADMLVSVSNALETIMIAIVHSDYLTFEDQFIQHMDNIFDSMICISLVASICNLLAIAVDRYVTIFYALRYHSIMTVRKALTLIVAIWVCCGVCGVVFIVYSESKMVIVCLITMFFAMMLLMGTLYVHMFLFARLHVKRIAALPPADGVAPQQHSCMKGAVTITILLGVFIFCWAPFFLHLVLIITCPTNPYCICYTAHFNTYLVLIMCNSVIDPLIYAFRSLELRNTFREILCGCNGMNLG
T3 sequence (P33032 whole entry): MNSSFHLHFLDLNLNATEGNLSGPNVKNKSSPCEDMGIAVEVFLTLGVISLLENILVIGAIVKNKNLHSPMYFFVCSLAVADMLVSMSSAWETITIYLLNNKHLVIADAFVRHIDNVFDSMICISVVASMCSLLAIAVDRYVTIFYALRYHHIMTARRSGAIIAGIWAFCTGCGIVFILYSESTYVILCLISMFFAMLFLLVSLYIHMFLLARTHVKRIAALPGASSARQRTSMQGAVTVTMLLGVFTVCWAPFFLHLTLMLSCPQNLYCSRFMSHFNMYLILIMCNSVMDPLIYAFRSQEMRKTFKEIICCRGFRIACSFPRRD
T5 sequence (P35372 whole entry): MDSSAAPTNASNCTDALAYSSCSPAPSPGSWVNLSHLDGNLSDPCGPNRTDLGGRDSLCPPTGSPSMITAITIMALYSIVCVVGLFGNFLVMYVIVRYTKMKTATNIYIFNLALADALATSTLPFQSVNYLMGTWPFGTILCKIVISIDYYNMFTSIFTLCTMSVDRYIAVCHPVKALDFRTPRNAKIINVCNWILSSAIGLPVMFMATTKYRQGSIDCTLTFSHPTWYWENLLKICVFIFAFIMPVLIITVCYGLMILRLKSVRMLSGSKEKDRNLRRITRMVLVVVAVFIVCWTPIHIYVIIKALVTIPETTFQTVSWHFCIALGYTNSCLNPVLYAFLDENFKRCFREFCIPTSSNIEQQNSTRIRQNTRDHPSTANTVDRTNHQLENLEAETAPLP
T10 sequence (P32245 whole entry): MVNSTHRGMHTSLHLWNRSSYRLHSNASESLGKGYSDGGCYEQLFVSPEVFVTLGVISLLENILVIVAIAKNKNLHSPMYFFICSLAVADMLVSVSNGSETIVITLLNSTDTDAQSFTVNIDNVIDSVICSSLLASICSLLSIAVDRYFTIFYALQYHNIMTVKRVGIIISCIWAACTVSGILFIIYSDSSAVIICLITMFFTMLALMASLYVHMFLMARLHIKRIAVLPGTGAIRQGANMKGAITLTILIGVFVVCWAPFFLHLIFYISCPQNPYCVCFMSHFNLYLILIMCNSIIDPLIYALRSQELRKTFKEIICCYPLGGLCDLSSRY
T4 sequence (P41146 whole entry): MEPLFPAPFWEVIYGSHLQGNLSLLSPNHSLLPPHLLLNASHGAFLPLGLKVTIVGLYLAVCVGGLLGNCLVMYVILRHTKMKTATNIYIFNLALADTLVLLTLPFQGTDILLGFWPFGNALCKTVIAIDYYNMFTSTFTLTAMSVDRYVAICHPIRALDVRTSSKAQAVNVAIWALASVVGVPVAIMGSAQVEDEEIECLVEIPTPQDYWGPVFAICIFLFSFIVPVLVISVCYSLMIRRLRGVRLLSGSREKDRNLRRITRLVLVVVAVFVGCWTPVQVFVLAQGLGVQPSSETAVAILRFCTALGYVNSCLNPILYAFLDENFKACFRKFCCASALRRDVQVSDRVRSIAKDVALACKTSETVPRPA
T6 sequence (Q99705 whole entry): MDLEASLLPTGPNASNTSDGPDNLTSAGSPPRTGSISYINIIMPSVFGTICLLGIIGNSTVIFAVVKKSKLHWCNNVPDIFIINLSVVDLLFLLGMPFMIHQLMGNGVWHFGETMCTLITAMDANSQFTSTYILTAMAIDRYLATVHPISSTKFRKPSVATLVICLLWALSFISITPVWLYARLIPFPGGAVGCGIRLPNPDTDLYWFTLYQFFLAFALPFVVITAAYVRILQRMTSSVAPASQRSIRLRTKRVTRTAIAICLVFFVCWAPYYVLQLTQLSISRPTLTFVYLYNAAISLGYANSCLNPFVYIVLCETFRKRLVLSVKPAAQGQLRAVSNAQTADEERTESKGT
T2 sequence (P41145 whole entry): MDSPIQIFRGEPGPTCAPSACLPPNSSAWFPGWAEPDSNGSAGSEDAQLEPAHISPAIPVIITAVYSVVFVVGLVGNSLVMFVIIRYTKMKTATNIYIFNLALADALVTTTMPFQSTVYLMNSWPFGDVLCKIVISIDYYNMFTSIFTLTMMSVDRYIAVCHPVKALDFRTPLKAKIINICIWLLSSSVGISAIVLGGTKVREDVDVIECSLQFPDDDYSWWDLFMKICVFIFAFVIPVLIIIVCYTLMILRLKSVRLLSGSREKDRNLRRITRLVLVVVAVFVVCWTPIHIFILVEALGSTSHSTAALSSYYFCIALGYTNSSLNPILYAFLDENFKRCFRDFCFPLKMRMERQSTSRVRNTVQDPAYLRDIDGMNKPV
T1 sequence (P25103 whole entry): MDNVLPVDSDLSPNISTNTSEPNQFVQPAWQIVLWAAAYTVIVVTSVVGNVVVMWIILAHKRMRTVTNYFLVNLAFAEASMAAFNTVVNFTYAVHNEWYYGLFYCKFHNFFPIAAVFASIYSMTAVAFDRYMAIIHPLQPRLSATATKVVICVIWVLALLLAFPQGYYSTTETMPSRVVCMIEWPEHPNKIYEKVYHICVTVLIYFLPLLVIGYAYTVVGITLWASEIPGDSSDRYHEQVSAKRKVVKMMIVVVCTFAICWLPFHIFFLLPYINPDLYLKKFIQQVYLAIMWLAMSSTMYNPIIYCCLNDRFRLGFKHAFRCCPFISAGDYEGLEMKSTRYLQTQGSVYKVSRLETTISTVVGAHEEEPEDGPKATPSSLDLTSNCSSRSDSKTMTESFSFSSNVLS

| Structure (SMILES) | A8 radioligand binding inhibition (Human neurokinin (NK1)) | A2 radioligand binding inhibition (Human κ-Opioid (KOP)) | A5 radioligand binding inhibition (Human melanocortin (MC5)) | A10 radioligand binding inhibition (Human opioid (ORL1); human ORL1 membranes) | A7 radioligand binding inhibition (Human μ-opioid (MOP)) | A6 radioligand binding inhibition [1] | A1 radioligand binding inhibition (Human δ-opioid (DOP)) | A9 radioligand binding inhibition ([2]; human NPY-Y1 membranes) | A3 radioligand binding inhibition (Human Melanocortin (MC3)) | A4 radioligand binding inhibition (Human Melanocortin (MC4)) | A11 radioligand binding inhibition (Mouse urotensin (mUR2)) | further results |
| --- | --- | --- | --- | --- | --- | --- | --- | --- | --- | --- | --- | --- |
| CO[C@H]1[C@H](O)[C@@H](COCc2ccc3ccccc3c2)OC(OCc2ccccc2)[C@@H]1NC(=O)CNC(=N)N (stereo partly shown) [compound 86] | + (“+” indicates greater than 50% inhibition at 10 μM) | − (“−” indicates less than 50% inhibition at 10 μM) | + (“+” indicates greater than 50% inhibition at 10 μM) | − (“−” indicates less than 50% inhibition at 10 μM) | + (“+” indicates greater than 50% inhibition at 10 μM) | − (“−” indicates less than 50% inhibition at 10 μM) | − (“−” indicates less than 50% inhibition at 10 μM) | − (“−” indicates less than 50% inhibition at 10 μM) | + (“+” indicates greater than 50% inhibition at 10 μM) | + (“+” indicates greater than 50% inhibition at 10 μM) | − (“−” indicates less than 50% inhibition at 10 μM) |  |
| NCCC(=O)NC1C(OCc2ccc3ccccc3c2)OC(COCc2ccc(Cl)cc2)C(O)C1OCc1ccc(Cl)cc1 (stereo not shown) [compound 383] |  |  |  |  |  |  |  |  |  |  |  | A8: inhibition of radioligand binding (Human neurokinin (NK1); [125I]-Substance P, human NK1 membranes): + (“+” indicates greater than 50% inhibition at 10 μM); A2: inhibition of radioligand binding (Human κ-Opioid (KOP); [3H]-Diprenorphine, human KOP membranes): − (“−” indicates less than 50% inhibition at 10 μM); A5: inhibition of radioligand binding (Human melanocortin (MC5); [125I]-NDP-αMSH, human MC5 membranes): + (“+” indicates greater than 50% inhibition at 10 μM); A10: inhibition of radioligand binding (Human opioid (ORL1); [125I]-Nociceptin, human ORL1 membranes): − (“−” indicates less than 50% inhibition at 10 μM); A7: inhibition of radioligand binding (Human μ-opioid (MOP); [3H]-Naloxone, human MOP membranes): − (“−” indicates less than 50% inhibition at 10 μM); A6: inhibition of radioligand binding ([1]; [125I]-S36057, human MCH1 membranes): − (“−” indicates less than 50% inhibition at 10 μM); A1: inhibition of radioligand binding (Human δ-opioid (DOP); [3H]-Bremazocine, human DOP membranes): − (“−” indicates less than 50% inhibition at 10 μM); A9: inhibition of radioligand binding ([2]; [125I]-PYY, human NPY-Y1 membranes): − (“−” indicates less than 50% inhibition at 10 μM); A3: inhibition of radioligand binding (Human Melanocortin (MC3); [125I]-NDP-αMSH, human MC3 membranes): + (“+” indicates greater than 50% inhibition at 10 μM); A4: inhibition of radioligand binding (Human Melanocortin (MC4); [125I]-NDP-αMSH, human MC4 membranes): + (“+” indicates greater than 50% inhibition at 10 μM); A11: inhibition of radioligand binding (Mouse urotensin (mUR2); [125I]-Urotensin II, mouse mUR2 membranes): − (“−” indicates less than 50% inhibition at 10 μM) |
| CO[C@H]1[C@H](O)[C@@H](COCc2cccc(O)c2)OC(OCCc2ccccc2)[C@@H]1NC(=O)CCCN (stereo partly shown) [compound 160] |  |  |  |  |  |  |  |  |  |  |  | A8 radioligand binding, percentage inhibition (Human neurokinin (NK1); [125I]-Substance P): + (“+” indicates greater than 50% inhibition at 10 μM); A2 radioligand binding, percentage inhibition (Human κ-Opioid (KOP); [3H]-Diprenorphine): − (“−” indicates less than 50% inhibition at 10 μM); A5 radioligand binding, percentage inhibition (Human melanocortin (MC5); [125I]-NDP-αMSH): − (“−” indicates less than 50% inhibition at 10 μM); A10 radioligand binding, percentage inhibition (Human opioid (ORL1); [125I]-Nociceptin): − (“−” indicates less than 50% inhibition at 10 μM); A7 radioligand binding, percentage inhibition (Human μ-opioid (MOP); [3H]-Naloxone): − (“−” indicates less than 50% inhibition at 10 μM); A6 radioligand binding, percentage inhibition ([1]; [125I]-S36057): − (“−” indicates less than 50% inhibition at 10 μM); A1 radioligand binding, percentage inhibition (Human δ-opioid (DOP); [3H]-Bremazocine): − (“−” indicates less than 50% inhibition at 10 μM); A9 radioligand binding, percentage inhibition ([2]; [125I]-PYY): − (“−” indicates less than 50% inhibition at 10 μM); A3 radioligand binding, percentage inhibition (Human Melanocortin (MC3); [125I]-NDP-αMSH): − (“−” indicates less than 50% inhibition at 10 μM); A4 radioligand binding, percentage inhibition (Human Melanocortin (MC4); [125I]-NDP-αMSH): − (“−” indicates less than 50% inhibition at 10 μM); A11 radioligand binding, percentage inhibition (Mouse urotensin (mUR2); [125I]-Urotensin II): − (“−” indicates less than 50% inhibition at 10 μM) |
| CO[C@H]1[C@H](O)[C@@H](COCc2ccc(Cl)cc2)OC(OCc2ccc3ccccc3c2)[C@@H]1NC(=O)CCCNC(=N)N (stereo partly shown) [compound 81] | + (“+” indicates greater than 50% inhibition at 10 μM) | + (“+” indicates greater than 50% inhibition at 10 μM) | + (“+” indicates greater than 50% inhibition at 10 μM) | − (“−” indicates less than 50% inhibition at 10 μM) | + (“+” indicates greater than 50% inhibition at 10 μM) | − (“−” indicates less than 50% inhibition at 10 μM) | − (“−” indicates less than 50% inhibition at 10 μM) | − (“−” indicates less than 50% inhibition at 10 μM) | + (“+” indicates greater than 50% inhibition at 10 μM) | + (“+” indicates greater than 50% inhibition at 10 μM) | − (“−” indicates less than 50% inhibition at 10 μM) |  |
| COC[C@H]1OC(OCc2ccccc2)[C@H](NC(=O)CCCNC(=N)N)[C@@H](OCc2ccc(-c3ccccc3)cc2)[C@@H]1O (stereo partly shown) [compound 25] | + (“+” indicates greater than 50% inhibition at 10 μM) | − (“−” indicates less than 50% inhibition at 10 μM) | + (“+” indicates greater than 50% inhibition at 10 μM) | − (“−” indicates less than 50% inhibition at 10 μM) | − (“−” indicates less than 50% inhibition at 10 μM) | + (“+” indicates greater than 50% inhibition at 10 μM) | − (“−” indicates less than 50% inhibition at 10 μM) | − (“−” indicates less than 50% inhibition at 10 μM) | − (“−” indicates less than 50% inhibition at 10 μM) | + (“+” indicates greater than 50% inhibition at 10 μM) | − (“−” indicates less than 50% inhibition at 10 μM) |  |
